In patent US10017741B2, “Compositions and methods for obtaining enriched mesenchymal stem cell cultures” (StemCell Technologies Inc., priority 2013, dated 2018):
“Also recorded” adds a separate entry of the source.

Assays:
mouse CB-MSC cultures = assay: Osteogenic and adipogenic differentiation of mouse CB-MSC; type: cell-based
[1] = system: CB-derived cultures (CD45+/CD11b+ macrophages, Sca1+ monocytes); assay: Flow cytometry of CB-derived expansion cultures; type: cell-based, mouse
Protocol: (§1) c. Expansion of Human BM and Mouse BM and CB-Derived Cells Assay • 1. […] Cultures were allowed to grow for 10-14 days until adherent cells achieved 70 to 80% confluence. Mouse cultures were maintained under normal (5% CO2) or hypoxic conditions (5% CO2/5% O2) at 37 C in a cell culture incubator. Human cultures were maintained under 5% CO2 at 37 C in a humidified cell culture incubator. • 3. Adherent cells were passaged by releasing cultures from flask. Cultures were washed with 5 mL PBS and then 5 mL of 0.25% trypsin solution ([…] catalogue #07901) was added and the flasks incubated for 10 min at 37 C. To each flask, 5 mL complete medium was added to stop trypsin activity. • 4. Released cells were collected into a tube and centrifuged at 300×g for 5 minutes. • 5. Cells were resuspended in 2 mL of medium and counted using a hemocytometer. • 6. […] P1 cultures were incubated until they reached 70 to 80% confluence. • 8. Passaged cultures can be used at any time from P0 to P10 as needed for different applications.
(§2) d. Flow Cytometry Analysis • 1. Cultures of BM and CB-derived cells were trypsinized for 10 minutes and an equal volume of complete medium was added to cultures to stop trypsin activity • 2. Cell suspension was filtered through a 40 μm strainer, and cells counted using a hemocytometer • 3. Suspension was spun down at 300×g for 5 minutes. • 4. Supernatant was removed and cell pellet resuspended in FACS buffer (PBS with 2% FBS and 1 mM EDTA) • 5. A total of 1×10^5 cells in 300 μL FACS buffer was used for each flow cytometry analysis tube, including unstained, viability, compensation, and isotype controls. • 6. Cell suspensions were stained with fluorophore-labeled antibodies against CD45, CD11b, and Sca1, CD29, and viability dye. • 7. Cell suspensions were analyzed on a flow cytometer using compensation and isotype control to determine laser voltage and gating. • 8. Samples were gated on viable CD45^+ cells and 10,000 events per sample were collected. Alternatively, cells were gated on viable CD45^− cells and out of this gate the proportion of CD29+/Sca1^+ cells obtained.

[2] = system: BM-MSCs (CD45−/CD29+/Sca1+); assay: Total cell count with flow cytometry, BM-MSC cultures; type: cell-based, mouse
Protocol: as §2
Prior to flow cytometry, control and GW2580-treated cultures of BM- and CB-MSC were dissociated from tissue culture flasks by trypsinization and the total number of cells counted with the aid of a hemocytometer. Flow cytometry analysis was performed and the ratio of CD45^− cells and CD45^−/CD29^+/Sca1^+ cells applied to the total number of cells to obtain the actual number of these cells in culture (Table 2).

[3] = system: mouse CB-derived cells (MSC colonies); assay: Mouse CB-derived CFU-F assay; type: cell-based; conditions: 14 days
Protocol: a. Mouse BM and CB-Derived CFU-F Assay • 1. […] Medium was removed cultures washed with 2 mL PBS. • 4. Cells were fixed by adding 2 mL methanol/well and incubated at room temperature for 5 minutes. • 5. Methanol was removed and plates allowed to air dry for 5 minutes. • 6. To each well, 2 mL Toluidine blue solution was added and incubated for 30 minutes at room temperature. • 7. Toluidine blue solution was removed and wells rinsed with water. • 8. Water was removed and plates allowed to dry. • 9. Colony formation was assessed by enumeration and colony size. Mouse CB-derived cells were isolated as described previously and CFU-F assays setup as described above. […] Cultures were then stained with Toluidine blue and colony formation and appearance assessed. Three independent assays CFU-F assays for both BM- and CB-MSC were setup as in Example 4a and 4b. […] These assays were maintained for 14 days without media change. At the end of day 14, cultures were fixed and stained with toluidine blue and the number of MSC colonies counted.

26 other kinases = conditions: cited from earlier work
human BM-derived MSCs = assay: Adipogenic and osteogenic differentiation of human BM-derived MSCs; type: cell-based; conditions: human BM-MSC expanded to P2 in 1 μM, 3 weeks differentiation, Oil red O / silver nitrate
Protocol: as §1
BM-derived cultures were isolated as described above and expansion assays setup as described above. […] At the end of P2, cell were dissociated by trypsin digestion and replated at 3×10^4 cells/cm^2 in 12-well plates for differentiation assays. Differentiation cultures were maintained for 3 weeks in adipogenic or osteogenic differentiation media. […]

[4] = CB, 1 μM P0-P1 then vehicle P2-P3, analysed at P3, adherent cells
[5] = CB, 1 μM P0-P1 then vehicle P2-P3, analysed at P3, non-adherent cells
[6] = CB, P4, DMSO P0-P2 then 1 μM GW2580 P3-P4, or P4 control cultures EasySep-enriched
[7] = BM-MSCs, 2.5 uM GW2580, 14 days during P0
[8] = CB-MSC, assay 1, 1 uM GW2580, 1.0 × 10^5 cells plated
[9] = CB-MSC, assay 1, 1 uM GW2580, 2.5 × 10^5 cells plated
[10] = CB-MSC, assay 1, 1 uM GW2580, 5.0 × 10^4 cells plated
[11] = CB-MSC, assay 1, 1 uM GW2580, Sum of the three densities
[12] = CB-MSC, assay 2, 2.5 uM GW2580, 1.0 × 10^6 cells plated
[13] = CB-MSC, assay 2, 2.5 uM GW2580, 2.5 × 10^5 cells plated
[14] = CB-MSC, assay 2, 2.5 uM GW2580, 5.0 × 10^5 cells plated
[15] = CB-MSC, assay 2, 2.5 uM GW2580, Sum of the three densities
[16] = CB-MSC, assay 3, 2.5 uM GW2580, 1.0 × 10^6 cells plated
[17] = CB-MSC, assay 3, 2.5 uM GW2580, 2.5 × 10^5 cells plated
[18] = CB-MSC, assay 3, 2.5 uM GW2580, 5.0 × 10^5 cells plated
[19] = CB-MSC, assay 3, 2.5 uM GW2580, Sum of the three densities

SMILES: COc1ccc(COc2ccc(Cc3cnc(N)nc3N)cc2OC)cc1 [GW2580, 5-(3-Methoxy-4-((4-methoxybenzyl)oxy)benzyl)pyrimidine-2,4-diamine]
- adipogenic and osteogenic differentiation (Oil Red O, ALP/mineralization) (mouse CB-MSC cultures; CB-MSC, 2.5 uM for 2 passages, plated at 4.0×10^4 cells/cm^2, 14 days): substantial adipogenic and osteogenic differentiation
- differentiation into osteogenic and adipogenic lineages vs control cultures (mouse CB-MSC cultures; mouse CB-MSC exposed to GW2580 during expansion): stronger and more robust differentiation
- dose-response increase in CD45+/CD11b+/Sca1+ hematopoietic monocytes ([1]; CB, 1 μM): 18%
- number of CD45+/CD11b+/Sca1+ monocytes ([1]; CB, 1 μM (control 7%)): 25%
- number of CD45+ cells ([1]; CB, 1 μM (control 78%)): 64%
- CD45+/CD11b+ mature macrophages ([1]; CB, 1 μM (control 93%)): 75%
- CD45+/CD11b+/Sca1+ monocytes, of CD45+ cells [1, 4]: 2%
- CD45+/CD11b+/Sca1− mature macrophages, of CD45+ cells [1, 4]: 97%
- CD45+/CD11b+/Sca1+ monocytes, of CD45+ cells [1, 5]: < 1%
- CD45+/CD11b+/Sca1− mature macrophages, of CD45+ cells [1, 5]: 99%
- CD11b+/Sca1+ hematopoietic monocytes, of CD45+ cells ([1]; CB, 1 μM P0 to P2): 28%
- CD11b+/Sca1− mature macrophages, of CD45+ cells ([1]; CB, 1 μM P0 to P2): 62%
- overall reduction in CD45+ cells ([1]; CB, 1 μM P0 to P2): 15%
- reduction in CD45+/CD11b+/Sca1+ monocyte differentiation into mature macrophage (increase in Sca1+ fraction vs control) ([1]; CB, 1 μM P0 to P2): 22%
- CD11b+/Sca1+ hematopoietic monocytes, of CD45+ cells ([1]; CB, 1 μM P0 to P3): 20%
- CD11b+/Sca1− mature macrophages, of CD45+ cells ([1]; CB, 1 μM P0 to P3): 76%
- overall reduction in CD45+ cells ([1]; CB, 1 μM P0 to P3): 55%
- reduction in CD45+/CD11b+/Sca1+ monocyte differentiation into macrophage (increase in Sca1+ cells vs control) ([1]; CB, 1 μM P0 to P3): 8%
- reduction in CD45+/CD11b+/Sca1− mature macrophage differentiation ([1]; CB, 1 μM, at P3): 12%
- dose-response increase in CD45+/CD11b+/Sca1+ hematopoietic monocytes ([1]; CB, 5 μM): 32%
- number of CD45+/CD11b+/Sca1+ monocytes ([1]; CB, 5 μM (control 7%)): 39%
- number of CD45+ cells ([1]; CB, 5 μM (control 78%)): 36%
- CD45+/CD11b+ mature macrophages ([1]; CB, 5 μM (control 93%)): 60%
- dose-response increase in CD45+/CD11b+/Sca1+ hematopoietic monocytes ([1]; CB, 10 μM): 41%
- number of CD45+/CD11b+/Sca1+ monocytes ([1]; CB, 10 μM (control 7%)): 48%
- number of CD45+ cells ([1]; CB, 10 μM (control 78%)): 30%
- CD45+/CD11b+ mature macrophages ([1]; CB, 10 μM (control 93%)): 50%
- CD45+/CD11b+ mature macrophages, of total viable cells ([1]; CB, P1, 1 μM): 34%
- reduction in macrophages vs control ([1]; CB, P1, 1 μM): 50%
- CD11b+/Sca1+ monocytes, of CD45+ cells [1, 6]: about 75%
- CD11b+/Sca1− mature macrophages, of CD45+ cells [1, 6]: around 25%
- CD45+/CD11b+ mature macrophages, of viable cells ([1]; CB-derived cultures, 1 μM up to P2): < 1%
- actual increase in BM-MSCs (CD45−/CD29+/Sca1+) vs control ([2]; BM-MSC, 2.5 uM GW2580): 0.25 fold
- increase in number of CD45−/CD29+/Sca1+ MSCs vs control ([2]; BM-MSC, 2.5 uM GW2580): 26%
- Actual number of cells, CD45− [2, 7]: 665,331
- Actual number of cells, CD45−/CD29+/Scal+ [2, 7]: 639,450
- CD45−, Percent (Flow Cytometry) [2, 7]: 70.48%
- total cells [2, 7]: 9.44E+05
- CD45−/CD29+/Scal+, Percent (Flow Cytometry) ([2]; BM-MSCs, 2.5 uM GW2580, 14 days during P0, out of CD45− gate): 96.11%
- overall minimal increase in number of MSC colonies vs control ([3]; CB-MSC, 1 or 2.5 uM, three assays): ≥ 20%
- % increase in number of MSC colonies vs control [3, 8]: 51%
- Number of MSC colonies [3, 8]: 77
- % increase in number of MSC colonies vs control [3, 9]: 30%
- Number of MSC colonies [3, 9]: 133
- % increase in number of MSC colonies vs control [3, 10]: 70%
- Number of MSC colonies [3, 10]: 46
- % increase in number of MSC colonies vs control [3, 11]: 42%
- Number of MSC colonies [3, 11]: 256
- % increase in number of MSC colonies vs control [3, 12]: 84%
- Number of MSC colonies [3, 12]: 83
- % increase in number of MSC colonies vs control [3, 13]: 25%
- Number of MSC colonies [3, 13]: 15
- % increase in number of MSC colonies vs control [3, 14]: 9%
- Number of MSC colonies [3, 14]: 36
- % increase in number of MSC colonies vs control [3, 15]: 49%
- Number of MSC colonies [3, 15]: 134
- % increase in number of MSC colonies vs control [3, 16]: 84%
- Number of MSC colonies [3, 16]: 147
- % increase in number of MSC colonies vs control [3, 17]: 25%
- Number of MSC colonies [3, 17]: 35
- % increase in number of MSC colonies vs control [3, 18]: 29%
- Number of MSC colonies [3, 18]: 89
- % increase in number of MSC colonies vs control [3, 19]: 53%
- Number of MSC colonies [3, 19]: 271
- increase in colony number compared to control cultures ([3]; CB-derived, 1 μM): at least 24%
- MSC CFU-F appearance (colony size, macrophages) ([3]; CB-derived, 1 μM, Toluidine blue): bigger in size and have a much reduced number of macrophages; also recorded: larger, enriched MSC CFU-F that are mostly free of macrophages
- activity against 26 other kinases tested (26 other kinases): inactive
- adipogenic and osteogenic differentiation vs control-expanded cultures (human BM-derived MSCs): differentiated equally well
